Where two headings read alike, the source gives them in different places.
Tests used:
in vitro [1] = conditions: PAMPA
[2] = test system: primary peritoneal mouse macrophages (PMM); test: cells; conditions: Macrophage, read-out: PMM IC50 (uM)
in vitro [3] = conditions: human, microsomes, pH 7.4, HLM CLint (uL/min/mg), human liver microsomes
in vitro [4] = conditions: human, HepG2 cells
in vitro [5] = conditions: mouse, microsomes, pH 7.4, MLM CLint (uL/min/mg), mouse liver microsomes
[6] = test system: Leishmania infantum MHOM/MA(BE)/67/ITMAP263 intracellular amastigotes; test: microbe, parasite or virus in culture; conditions: Macrophage, in Mus musculus
in vitro [7] = conditions: human
[8] = test system: Trypanosoma cruzi, Tulahuen CL2, beta-galactosidase strain; test: microbe, parasite or virus in culture; conditions: MRC5, read-out: T. cruzi Tulahuen C4 (LacZ) IC50 (uM)
physchem = conditions: HPLC, Ascentis Express RP Amide column, pH 7.4, eLogD, experimental
in vitro [9] = conditions: human, HFF-1 cells
[10] = read-out: L. Inf. pIC50, from L. infantum intracellular amastigote IC50 (converted)
[11] = read-out: L. infantum MHOM/MA(BE)/67/ITMAP263 intracellular amastigotes IC50 (uM), intracellular amastigotes

| SMILES | Papp (in vitro [1]) [×10⁻⁶ cm/s] | IC50 [2] [µM] | microsomal CLint at 0.5 μM (in vitro [3]) [µL/min/mg] | CC50 (in vitro [4]) [µM] | microsomal CLint at 0.5 μM (in vitro [5]) [µL/min/mg] | IC50 [6, 10] [µM] | IC50 [6, 11] [µM] | CC50 at 3 days (in vitro [7]) [µM] | IC50 [8] [µM] | chromatographic logD (physchem) | CC50 (in vitro [9]) [µM] |
| --- | --- | --- | --- | --- | --- | --- | --- | --- | --- | --- | --- |
| COc1ccc(C(=O)N2CCN(C)CC2)cc1S(=O)(=O)N(Cc1ccc(F)cc1)Cc1ccc(F)cc1 [DNDI0003371173] | 3.23 | 32 | 585 | 49.5 | 2240 | 0.537 | 0.54 | 25.8 | 11.1 | 4.7 | 4.16 |
| COc1ccc(C(=O)NC2COC2)cc1S(=O)(=O)N(Cc1ccc(F)cc1)Cc1ccc(F)cc1 [DNDI0003371174] | 4.92 | > 64 | 178 | > 64 | 395 | 0.794 | 0.79 | > 64 | 38.5 | – | > 64 |
| COc1ccc(C(=O)N(C)CCO)cc1S(=O)(=O)N(Cc1ccc(F)cc1)Cc1ccc(F)cc1 [DNDI0003371175] | 11.2 | > 64 | 498 | 57.6 | 605 | 2.09 | 2.08 | > 64 | 25.3 | 3.8 | 60.2 |
| COc1ccc(C(=O)NCCO)cc1S(=O)(=O)N(Cc1ccc(F)cc1)Cc1ccc(F)cc1 [DNDI0003371176] | 5.78 | > 64 | 131 | > 64 | 410 | 2.51 | 2.53 | > 64 | 44.3 | 3.8 | > 64 |
| COCCNC(=O)c1ccc(OC)c(S(=O)(=O)N(Cc2ccc(F)cc2)Cc2ccc(F)cc2)c1 [DNDI0003371177] | 8.63 | > 64 | 407 | 54.1 | 1670 | 1.02 | 1.03 | > 64 | 40.4 | 4.1 | > 64 |
| COc1ccc(C(=O)N2CCOCC2)cc1S(=O)(=O)N(Cc1ccc(F)cc1)Cc1ccc(F)cc1 [DNDI0003371178] | 9.35 | > 64 | 997 | 44.5 | 984 | 1.02 | 1.02 | > 64 | 50.7 | 4 | 46.9 |
| COc1ccc(CN(Cc2ccc(F)cc2)S(=O)(=O)c2cc(F)ccc2OCCN(C)C)cc1 [DNDI0003378485] | 0.29 | 8 | 183 | 9.1 | 1080 | 3.24 | 3.24 | 6.43 | 6.96 | 5 | 1.95 |
| COc1ccc(C#N)cc1S(=O)(=O)N(Cc1ccc(F)cc1)C1CCOCC1 [DNDI0003388084] | 12.7 | > 64 | 194 | > 64 | 253 | > 64 | > 64 | > 64 | 53.1 | – | 44.1 |
| COc1ccc(-c2nc(C)no2)cc1S(=O)(=O)N(Cc1ccc(F)cc1)Cc1ccc(F)cc1 [DNDI0003388085] | 1.74 | > 64 | 177 | > 64 | 739 | 5.62 | 5.68 | > 64 | > 64 | 4.6 | 38.6 |
| COc1ccc(OC)c(S(=O)(=O)N(Cc2ccc(F)cc2)C2CCOCC2)c1 [DNDI0003388086] | 31.9 | > 64 | 49 | > 64 | 599 | > 64 | > 64 | > 64 | 45 | 3.7 | > 64 |
| COc1ccc(CN(Cc2ccc(F)cc2)S(=O)(=O)c2cc(OC)ccc2OC)cc1 [DNDI0003388087] | – | > 64 | 80 | 33.2 | 19 | 11.2 | 11.3 | 5.42 | 9.04 | 3.5 | 2.44 |
| COc1ccc(OC)c(S(=O)(=O)N(Cc2ccc(F)cc2)Cc2ccc(C#N)cc2)c1 [DNDI0003388088] | 3.57 | > 64 | 87 | 36.2 | – | 18.6 | 18.6 | > 64 | 19 | 4.1 | 51.9 |
| COc1ccc(Cl)cc1S(=O)(=O)N(Cc1ccccc1)C(CO)c1ccc(F)cc1 (centres unmarked) [DNDI0003388149] | 3.4 | > 64 | 18 | 15.7 | 38 | 1.7 | 1.69 | 21.6 | 15.8 | – | 1.25 |
| COc1ccc(CNC2COC2)cc1S(=O)(=O)N(Cc1ccc(F)cc1)Cc1ccc(F)cc1 [DNDI0003389115] | 3.42 | > 64 | 147 | > 64 | 384 | 1.78 | 1.79 | 41.7 | 14.4 | 4 | 51.7 |
| COc1ccc(CN2CCC(F)(F)CC2)cc1S(=O)(=O)N(Cc1ccc(F)cc1)Cc1ccc(F)cc1 [DNDI0003389116] | 0.4 | 45.2 | 984 | > 64 | 1760 | 3.16 | 3.18 | > 64 | 2.93 | 4.8 | 18.2 |
| O=S1(=O)c2cc(F)ccc2OCC(c2ccc(F)cc2)N1Cc1ccccc1 (centres unmarked) [DNDI0003389122] | – | 16 | – | > 64 | – | 10.2 | 10.2 | > 64 | > 64 | 4.9 | 12.1 |
| O=[N+]([O-])c1ccc(Cl)cc1S(=O)(=O)N(Cc1ccccc1)Cc1ccc(F)cc1 [DNDI0003389123] | – | > 64 | – | > 64 | – | > 64 | > 64 | > 64 | 26.4 | 5.1 | > 64 |
| COc1ccc(C(=O)N2CCOCC2)cc1S(=O)(=O)N(Cc1ccc(F)cc1)CC(C)C [DNDI0003389127] | 17.7 | > 64 | 543 | > 64 | 355 | 6.92 | 6.86 | > 64 | 39.1 | – | 8.25 |
| COc1ccc(OC)c(S(=O)(=O)N(Cc2ccc(F)cc2)Cc2ccnn2C)c1 [DNDI0003389129] | 35.6 | 45.2 | 207 | > 64 | 1090 | 5.13 | 5.19 | > 64 | 21.1 | – | 26.3 |
| COc1ccc(OC)c(S(=O)(=O)N(Cc2ccc(F)cc2)Cc2cnc(OC)nc2OC)c1 [DNDI0003389321] | 15.2 | > 64 | 270 | > 64 | 861 | 53.7 | 53.8 | > 64 | 27.8 | – | > 64 |
| N#Cc1ccccc1S(=O)(=O)N(Cc1ccccc1)Cc1ccccc1 [DNDI0003389641] | 1.66 | > 64 | 577 | > 64 | – | 11.2 | 11.3 | > 64 | 18.4 | 4.2 | 1.28 |
| COCCN(Cc1ccc(F)cc1)S(=O)(=O)c1cc(C(=O)N2CCOCC2)ccc1OC [DNDI0003392125] | 15.4 | > 64 | 28 | – | 60 | 22.4 | 22.5 | 22.7 | > 64 | – | – |
| CNC(=O)c1ccc(OC)c(S(=O)(=O)N(CCOC)Cc2ccccc2)c1 [DNDI0003392128] | 7.61 | > 64 | 23 | – | 393 | 28.2 | 28.1 | > 64 | > 64 | 2.7 | – |
| COCCN(Cc1ccccc1)S(=O)(=O)c1cc(C(=O)NC2COC2)ccc1OC [DNDI0003392129] | 4.72 | > 64 | 39 | – | 114 | 15.5 | 15.5 | > 64 | > 64 | 2.7 | – |
